Source: patent US20250098679A1, “HERBICIDAL PYRIDONE DERIVATIVES” (SYNGENTA CROP PROTECTION AG, priority 2021, published 2025)

Key:
Format in all cases: in vivo
Details in all cases: evaluated after 13 days
[1] = test system: Setaria faberi (SETFA); test: Post-emergence Test, Setaria faberi (SETFA); parameters: key to percentage damage caused to the plant, SETFA (five-point scale): 5=81-100%, 4=61-80%, 3=41-60%, 2=21-40%, 1=0-20% damage
Procedure: (§1) Seeds of a variety of test species are sown in standard soil in pots (Setaria faberi (SETFA), Echinochloa crus-galli (ECHCG), Zea mays (ZEAMX), Ipomoea hederacea (IPOHE), Amaranthus palmeri (AMAPA), Amaranthus retoflexus (AMARE)). After 8 days cultivation under controlled conditions in a glasshouse (at 24° C./16° C., day/night; 14 hours light; 65% humidity), the plants are sprayed with an aqueous spray solution derived from the formulation of the technical active ingredient in acetone/water (50:50) solution containing 0.5% Tween 20 (polyoxyethelyene sorbitan monolaurate, CAS RN 9005-64-5). Compounds are applied at 1000 g/ha unless otherwise stated. The test plants are then grown in a glasshouse under controlled conditions in a glasshouse (at 24° C./16° C., day/night; 14 hours light; 65% humidity) and watered twice daily. After 13 days the test is evaluated for the percentage damage caused to the plant. The biological activities are shown in the following table on a five-point scale (5=81-100%; 4=61-80%; 3=41-60%; 2=21-40%; 1=0-20%; -=not tested).

[2] = test system: Amaranthus retoflexus (AMARE); test: Post-emergence Test, Amaranthus retoflexus (AMARE); parameters: key to percentage damage caused to the plant, AMARE (five-point scale): 5=81-100%, 4=61-80%, 3=41-60%, 2=21-40%, 1=0-20% damage
Procedure: as §1

[3] = test system: Ipomoea hederacea (IPOHE); test: Post-emergence Test, Ipomoea hederacea (IPOHE); parameters: key to percentage damage caused to the plant, IPOHE (five-point scale): 5=81-100%, 4=61-80%, 3=41-60%, 2=21-40%, 1=0-20% damage
Procedure: as §1

[4] = test system: Amaranthus palmeri (AMAPA); test: Post-emergence Test, Amaranthus palmeri (AMAPA); parameters: key: 5=81-100%, 4=61-80%, 3=41-60%, 2=21-40%, 1=0-20% damage
Procedure: as §1

[5] = test system: Zea mays (ZEAMX); test: Post-emergence Test, Zea mays (ZEAMX); parameters: key to percentage damage caused to the plant, ZEAMX (five-point scale): 5=81-100%, 4=61-80%, 3=41-60%, 2=21-40%, 1=0-20% damage
Procedure: as §1

[6] = test system: Echinochloa crus-galli (ECHCG); test: Post-emergence Test, Echinochloa crus-galli (ECHCG); parameters: key to percentage damage caused to the plant, ECHCG (five-point scale): 5=81-100%, 4=61-80%, 3=41-60%, 2=21-40%, 1=0-20% damage
Procedure: as §1

| SMILES | percentage damage caused to the plant, SETFA (five-point scale) ([1]; 1000 g/ha) | percentage damage caused to the plant, AMARE (five-point scale) ([2]; 1000 g/ha) | percentage damage caused to the plant, IPOHE (five-point scale) ([3]; 1000 g/ha) | percentage damage caused to the plant, AMAPA (five-point scale) ([4]; 1000 g/ha) | percentage damage caused to the plant, ZEAMX (five-point scale) ([5]; 1000 g/ha) | percentage damage caused to the plant, ECHCG (five-point scale) ([6]; 1000 g/ha) | also measured |
| --- | --- | --- | --- | --- | --- | --- | --- |
| CCn1c(Cn2nc(C(F)(F)F)c3c2CCOC3)cc(=O)c(C(=O)O)c1-c1ccc(Cl)c(Cl)c1 [Compound 107, 2-(3,4-dichlorophenyl)-1-ethyl-4-oxo-6-[[3-(trifluoromethyl)-6,7-dihydro-4H-pyrano[4,3-c]pyrazol-1-yl]methyl]pyridine-3-carboxylic acid] | 1 (1=0-20%) | 1 (1=0-20%) | 2 (2=21-40%) | 1 (1=0-20%) | 0 | 1 (1=0-20%) | percentage damage caused to the plant, SETFA (five-point scale) ([1]; 250 g/Ha): 0; percentage damage caused to the plant, AMARE (five-point scale) ([2]; 250 g/Ha): 0; percentage damage caused to the plant, IPOHE (five-point scale) ([3]; 250 g/Ha): 0; percentage damage caused to the plant, AMAPA (five-point scale) ([4]; 250 g/Ha): 0; percentage damage caused to the plant, ZEAMX (five-point scale) ([5]; 250 g/Ha): 0; percentage damage caused to the plant, ECHCG (five-point scale) ([6]; 250 g/Ha): 2 (2=21-40%) |
| CCOC(=O)c1c(-c2ccc(Cl)c(Cl)c2)n(CC)c(Cn2cncn2)cc1=O [Compound 60, ethyl 2-(3,4-dichlorophenyl)-1-ethyl-4-oxo-6-(1,2,4-triazol-1-ylmethyl)pyridine-3-carboxylate] | 1 (1=0-20%) | 1 (1=0-20%) | 1 (1=0-20%) | 0 | 0 | 2 (2=21-40%) |  |
| CCn1c(Cn2ccc(Cl)n2)cc(=O)c(C(=O)O)c1-c1ccc(Cl)c(C#N)c1 [Compound 131, 2-(4-chloro-3-cyano-phenyl)-6-[(3-chloropyrazol-1-yl)methyl]-1-ethyl-4-oxo-pyridine-3-carboxamide acid] | 2 (2=21-40%) | 0 | 1 (1=0-20%) | 0 | 0 |  |  |
| CCn1c(Cn2cnc(C(=O)OC)c2)cc(=O)c(C(=O)O)c1-c1ccc(Cl)c(Cl)c1 [Compound 76, 2-(3,4-dichlorophenyl)-1-ethyl-6-[(4-methoxycarbonyl-imidazol-1-yl)methyl]-4-oxo-pyridine-3-carboxylic acid] | 1 (1=0-20%) | 1 (1=0-20%) | 0 | 1 (1=0-20%) | 1 (1=0-20%) | 0 |  |
| CCn1c(Cn2cnc(F)c2)cc(=O)c(C(=O)O)c1-c1ccc(Cl)c(Cl)c1 [Compound 77, 2-(3,4-dichlorophenyl)-1-ethyl-6-[(4-fluoroimidazol-1-yl)methyl]-4-oxo-pyridine-3-carboxylic acid] | 0 | 1 (1=0-20%) | 0 | 1 (1=0-20%) | 1 (1=0-20%) | 1 (1=0-20%) |  |
| CCc1ncnn1Cc1cc(=O)c(C(=O)O)c(-c2ccc(Cl)c(Cl)c2)n1CC [Compound 70, 2-(3,4-dichlorophenyl)-1-ethyl-6-[(5-ethyl-1,2,4-triazol-1-yl)methyl]-4-oxo-pyridine-3-carboxylic acid] | 2 (2=21-40%) | 1 (1=0-20%) | 1 (1=0-20%) | 1 (1=0-20%) | 0 | 1 (1=0-20%) |  |
| CCn1c(Cn2ccc(NC(C)=O)n2)cc(=O)c(C(=O)O)c1-c1ccc(Cl)c(Cl)c1 [Compound 154, 6-[(3-acetamidopyrazol-1-yl)methyl]-2-(3,4-dichlorophenyl)-1-ethyl-4-oxo-pyridine-3-carboxylic acid] | 0 | 0 | 0 | 0 | 1 (1=0-20%) | 0 | percentage damage caused to the plant, SETFA (five-point scale) ([1]; 250 g/Ha): 0; percentage damage caused to the plant, AMARE (five-point scale) ([2]; 250 g/Ha): 0; percentage damage caused to the plant, IPOHE (five-point scale) ([3]; 250 g/Ha): 0; percentage damage caused to the plant, AMAPA (five-point scale) ([4]; 250 g/Ha): 0; percentage damage caused to the plant, ZEAMX (five-point scale) ([5]; 250 g/Ha): 1 (1=0-20%); percentage damage caused to the plant, ECHCG (five-point scale) ([6]; 250 g/Ha): 0 |
| CCn1c(Cn2ccc(-c3ccco3)n2)cc(=O)c(C(=O)O)c1-c1ccc(Cl)c(Cl)c1 [Compound 200] |  |  |  |  |  |  | Post-emergence Test SETFA, percentage damage caused to the plant (five-point scale) ([1]; 1000 g/ha): 1 (1=0-20%); Post-emergence Test AMARE, percentage damage caused to the plant (five-point scale) ([2]; 250 g/Ha (*)): 0; Post-emergence Test AMARE, percentage damage caused to the plant (five-point scale) ([2]; 1000 g/ha): 0; Post-emergence Test IPOHE, percentage damage caused to the plant (five-point scale) ([3]; 250 g/Ha (*)): 0; Post-emergence Test IPOHE, percentage damage caused to the plant (five-point scale) ([3]; 1000 g/ha): 1 (1=0-20%); Post-emergence Test AMAPA, percentage damage caused to the plant (five-point scale) ([4]; 250 g/Ha (*)): 0; Post-emergence Test AMAPA, percentage damage caused to the plant (five-point scale) ([4]; 1000 g/ha): 0; Post-emergence Test ZEAMX, percentage damage caused to the plant (five-point scale) ([5]; 250 g/Ha (*)): 1 (1=0-20%); Post-emergence Test ZEAMX, percentage damage caused to the plant (five-point scale) ([5]; 1000 g/ha): 1 (1=0-20%); Post-emergence Test ECHCG, percentage damage caused to the plant (five-point scale) ([6]; 250 g/Ha (*)): 1 (1=0-20%) |
| CCn1c(Cn2nc(C#N)cc2C#N)cc(=O)c(C(=O)O)c1-c1ccc(Cl)c(Cl)c1 [Compound 132, 2-(3,4-dichlorophenyl)-6-[(3,5-dicyanopyrazol-1-yl)methyl]-1-ethyl-4-oxo-pyridine-3-carboxylic acid] | 1 (1=0-20%) | 0 | 0 |  | 1 (1=0-20%) | 1 (1=0-20%) |  |
| CCOC(=O)c1c(-c2ccc(Cl)c(Cl)c2)n(CC)c(Cn2nccc2Cl)cc1=O [Compound 67, ethyl 6-[(5-chloropyrazolo-1-yl)methyl]-2-(3,4-dichlorophenyl)-1-ethyl-4-oxo-pyridine-3-carboxylate] |  |  |  |  |  |  | percentage damage caused to the plant, SETFA (five-point scale) ([1]; 250 g/Ha): 0; percentage damage caused to the plant, AMARE (five-point scale) ([2]; 250 g/Ha): 1 (1=0-20%); percentage damage caused to the plant, IPOHE (five-point scale) ([3]; 250 g/Ha): 0; percentage damage caused to the plant, AMAPA (five-point scale) ([4]; 250 g/Ha): 1 (1=0-20%); percentage damage caused to the plant, ZEAMX (five-point scale) ([5]; 250 g/Ha): 0; percentage damage caused to the plant, ECHCG (five-point scale) ([6]; 250 g/Ha): 0 |
| CCOC(=O)c1c(-c2ccc(Cl)c(Cl)c2)n(CC)c(Cn2cnc(C#N)n2)cc1=O [Compound 54, ethyl 6-[(3-cyano-1,2,4-triazol-1-yl)methyl]-2-(3,4-dichlorophenyl)-1-ethyl-4-oxo-pyridine-3-carboxylate] | 1 (1=0-20%) | 1 (1=0-20%) | 0 | 1 (1=0-20%) | 1 (1=0-20%) | 1 (1=0-20%) |  |
| CCn1c(Cn2cnc(Cl)c2)cc(=O)c(C(=O)O)c1-c1ccc(Cl)c(Cl)c1 [Compound 74, 6-[(4-chloroimidazol-1-yl)methyl]-2-(3,4-dichlorophenyl)-1-ethyl-4-oxo-pyridine-3-carboxylic acid] | 0 | 0 | 0 | 0 | 1 (1=0-20%) | 0 |  |
| CCn1c(Cn2ccc(-c3cccc(Cl)c3)n2)cc(=O)c(C(=O)O)c1-c1ccc(Cl)c(Cl)c1 [Compound 202, 6-[[3-(3-chlorophenyl)pyrazol-1-yl]methyl]-2-(3,4-dichlorophenyl)-1-ethyl-4-oxo-pyridine-3-carboxylic acid] |  |  |  |  |  |  | Post-emergence Test SETFA, percentage damage caused to the plant (five-point scale) ([1]; 1000 g/ha): 1 (1=0-20%); Post-emergence Test AMARE, percentage damage caused to the plant (five-point scale) ([2]; 1000 g/ha): 0; Post-emergence Test IPOHE, percentage damage caused to the plant (five-point scale) ([3]; 1000 g/ha): 1 (1=0-20%); Post-emergence Test AMAPA, percentage damage caused to the plant (five-point scale) ([4]; 1000 g/ha): 0; Post-emergence Test ZEAMX, percentage damage caused to the plant (five-point scale) ([5]; 1000 g/ha): 1 (1=0-20%) |
